1 molecule from patent publication US20190330167A1, “ACTIVATORS OF HIV LATENCY” (priority 2016, published 2019) can be followed below.

Structures are written as SMILES.

For assay [1], the system named is HIV-1 gene expression in J.Lat10.6 latently infected T-cell line. Nature of the assay: cells. The class given is cell-based. How it is done:
The J.Lat10.6 latently infected T-cell line was treated with 4 compounds of the present invention, DP#6 (Compound 41), DP#14 (Compound 7), DP#18 (Compound 65), and DP#19 (Compound 73) and reactivated for 48 hrs. HIV-1 reactivation was measured by flowcytometry for GFP expression. Error bars represent standard deviation of n=3 experiments.
FIG. 45. […] The J.Lat10.6 model of HIV-1 latency was treated with JQ1 (+) and DP#14 (Compound 7) alone at 10 μM and in combination, and the HIV-1 gene expression measured 48 hrs post treatment. Error bars represent standard deviation of n=3 experiments. OPTI represents media alone, without DP#14.
FIG. 47. […] The J.Lat10.6 model of HIV-1 latency was treated with PFI-1 and DP#14 alone at 10 μM and in combination, and the HIV-1 gene expression measured 48 hrs post treatment. Error bars represent standard deviation of n=3 experiments. OPTI represents media alone, without DP#14.
Compounds were also evaluated in a dose ranging titration with HIV latently infected cell lines (J.Lat 6.3 and 10.6). The specificity of the selected compounds in these cell line models, were measured by inserting a CMV-DS.Red reporter into these cells to co-ordinately measure HIV specific LTR-Green fluorescent protein and non-specific DS.Red expression during FACS analysis.
The J.Lat model of HIV-1 latency is a well-established model used widely and is described in detail in the following paper:
HIV reproducibly establishes a latent infection after acute infection of T cells in vitro, Eric Verdin et al, The EMBO Journal Vol. 22 No. 8 pp 1868-1877, 2003

The test system of assay [2] is HIV-1 long terminal repeat (LTR)-driven luciferase reporter gene in FlipIn.FM HEK293 cells. In words: cells. Type of assay: cell-based. The procedure:
FIG. 44. […] The FlipIn.FM model of HIV-1 latency was treated with JQ1 (+) and DP#14 (Compound 7) alone at 10 μM and in combination, and the HIV-1 gene expression measured 48 hrs post treatment. Error bars represent standard deviation of n=3 experiments. OPTI represents media alone, without DP#14.
FIG. 46. […] The FlipIn.FM model of HIV-1 latency was treated with PFI-1 and DP#14 alone at 10 μM and in combination, and the HIV-1 gene expression measured 48 hrs post treatment. Error bars represent standard deviation of n=3 experiments. OPTI represents media alone, without DP#14.
Explicitly, HEK293 derived FlipIn-FM and FlipIn-RV dual reporter cells each include a single stable HIV-1 long terminal repeat (LTR)-driven luciferase reporter genes, with a second complimentary non-HIV (off-target) luciferase reporter. These cell lines model post integration latency and read-through transcription by expressing a low level of HIV-1 Tat protein via a native Internal Ribosome Entry Site (IRES) found within Tat, from a chimeric cellular-tat gene cassette. FlipIn-FM and FlipIn-RV clones were chosen for low basal levels of LTR activity and high responsiveness to Tat as well as many Latency Reversing Agents (LRAs).
The dual reporter cell lines contain three stably integrated constructs that together allow for detection of novel LRAs, capable of potent and specific HIV reactivation. The FlipIn.FM line contains a proviral LTR-driven nef/CBR reporter fusion gene, allowing for detection of viral gene expression. A second CMV-driven CBG luciferase reporter allows for detection of off target drug effects, including non-specific activation and drug toxicity. The third construct contains the first coding exon of HIV-1 tat, within human Growth Hormone (hGH) as a chimeric gene, expressing HIV-1 Tat protein from an IRES mechanism that underlies the tat exon. This construct models read-through transcription and the low level of Tat protein expression that occurs during post integration latency. The counter screening reverse cell line, FlipIn.RV, contains the same three components with the Click Beetle Luciferase genes in the opposite orientation (LTR-CBG and CMV-CBR) for counter screening.
Compounds were evaluated in an 11-point titration using normal CMV-CBG/LTR-CBR reporter cell line and an 11 point reverse CMV-CBR/LTR-CBG reporter cell line.
The FlipIn cell lines were therefore designed with a dual purpose, to detect novel compounds that reactivate HIV-1 and to also screen out compounds that behaved in a largely non-specific manner. To achieve the latter, the cell lines contain an “off target” reporter gene construct, driven by the unrelated CMV-IE promoter, that allows for the detection of drug mediated off target effects including global gene activation as well as possible toxicity.
The HIV-LTR driven latent reporter gene identifies the HIV-specific activation, and the term “global reporter” is interchangeable with “off target reporter” and refers to the unrelated CMV-IE promoter driven reporter gene, which is used as a surrogate for global gene activation. […] The highest concentration tested here was 40 μM.

With `O=C(CCCOc1ccccc1)Nc1ncc(Br)s1` [Compound 7], the IC50 (usually the concentration at which inhibition is half-maximal) in assay [1] (Human immunodeficiency virus 1, J-Lat 10.6, 48 h, read-out: IC50 for reactivation of HIV-1 gene expression) was about 4.5 µM. In addition, in assay [1] (J.Lat10.6 model, alone at 10 μM and in combination, 48 hrs post treatment), the “percent of the cells treated with reactivated HIV-1 gene expression” value was 2.4%. In assay [2] (FlipIn.FM model, alone at 10 μM and in combination, 48 hrs post treatment), the “fold change in HIV-1 gene expression over the unstimulated baseline” value is listed as 4.2 fold. Also, in assay [2] (Human immunodeficiency virus 1, HEK293, HIV-LTR driven latent reporter, 11-point, 2-fold dilution series, highest concentration 40 μM, read-out: Latent reporter Av EC50), the EC50 (commonly the concentration needed to bring the measured effect to its halfway point) was determined as 1.64 µM.
